Test system: 299254-011-R-J1-PDC complex spheroid viability
Experiment: Anticancer human tumor 299254-011-R-J1-PDC patient-derived melanoma cell line growth inhibition [POLQ]
Conditions: for IC50: curve of first compound; for viability, T/C: stronger effect = lower value
How it was run: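 Growth inhibition in 3D: complex spheroids (tumor PDC, HUVEC, MSC) treated with POLQ inhibitor combinations; where Cmax unknown, highest tested concentration 10 microM, except SN-38 at 1 microM.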

[1] = second compound 0.0316 µM, first compound 0.0316 µM
[2] = second compound 0.0316 µM, first compound 0.1 µM
[3] = second compound 0.0316 µM, first compound 0.316 µM
[4] = second compound 0.0316 µM, first compound 1 µM
[5] = second compound 0.0316 µM, first compound 3.16 µM
[6] = second compound 0.0316 µM, first compound 10 µM
[7] = second compound 0.1 µM, first compound 0.0316 µM
[8] = second compound 0.1 µM, first compound 0.1 µM
[9] = second compound 0.1 µM, first compound 0.316 µM
[10] = second compound 0.1 µM, first compound 1 µM
[11] = second compound 0.1 µM, first compound 3.16 µM
[12] = second compound 0.1 µM, first compound 10 µM
[13] = second compound 0.316 µM, first compound 0.0316 µM
[14] = second compound 0.316 µM, first compound 0.1 µM
[15] = second compound 0.316 µM, first compound 0.316 µM
[16] = second compound 0.316 µM, first compound 1 µM
[17] = second compound 0.316 µM, first compound 3.16 µM
[18] = second compound 0.316 µM, first compound 10 µM
[19] = second compound 1 µM, first compound 0.0316 µM
[20] = second compound 1 µM, first compound 0.1 µM
[21] = second compound 1 µM, first compound 0.316 µM
[22] = second compound 1 µM, first compound 1 µM
[23] = second compound 1 µM, first compound 3.16 µM
[24] = second compound 1 µM, first compound 10 µM
[25] = second compound 3.16 µM, first compound 0.0316 µM
[26] = second compound 3.16 µM, first compound 0.1 µM
[27] = second compound 3.16 µM, first compound 0.316 µM
[28] = second compound 3.16 µM, first compound 1 µM
[29] = second compound 3.16 µM, first compound 3.16 µM
[30] = second compound 3.16 µM, first compound 10 µM
[31] = second compound 10 µM, first compound 0.0316 µM
[32] = second compound 10 µM, first compound 0.1 µM
[33] = second compound 10 µM, first compound 0.316 µM
[34] = second compound 10 µM, first compound 1 µM
[35] = second compound 10 µM, first compound 3.16 µM
[36] = second compound 10 µM, first compound 10 µM
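Note: spheroids exposed to drugs for one week before measurement.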
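Throughout, for viability, T/C: percent viability relative to DMSO vehicle control taken as 100%.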

## CNCc1ccc(-c2[nH]c3cc(F)cc4c3c2CCNC4=O)cc1 + Nc1ccc(C#CCN(C(=O)Cc2ncc(C(F)(F)F)cc2C(F)(F)F)c2ccc(F)cc2)nn1
Second compound 0.0316 µM
  IC50: > 10 µM
Second compound 0.1 µM
  IC50: > 10 µM
Second compound 0.316 µM
  IC50: > 10 µM
Second compound 1 µM
  IC50: > 10 µM
Second compound 3.16 µM
  IC50: > 10 µM
Second compound 10 µM
  IC50: > 10 µM
[1]
  viability, T/C: 108%
[2]
  viability, T/C: 107%
[3]
  viability, T/C: 109%
[4]
  viability, T/C: 122%
[5]
  viability, T/C: 110%
[6]
  viability, T/C: 103%
[7]
  viability, T/C: 115%
[8]
  viability, T/C: 117%
[9]
  viability, T/C: 99.8%
[10]
  viability, T/C: 105%
[11]
  viability, T/C: 109%
[12]
  viability, T/C: 109%
[13]
  viability, T/C: 106%
[14]
  viability, T/C: 107%
[15]
  viability, T/C: 96.4%
[16]
  viability, T/C: 95.7%
[17]
  viability, T/C: 119%
[18]
  viability, T/C: 129%
[19]
  viability, T/C: 113%
[20]
  viability, T/C: 111%
[21]
  viability, T/C: 94.4%
[22]
  viability, T/C: 102%
[23]
  viability, T/C: 129%
[24]
  viability, T/C: 114%
[25]
  viability, T/C: 106%
[26]
  viability, T/C: 105%
[27]
  viability, T/C: 110%
[28]
  viability, T/C: 95.9%
[29]
  viability, T/C: 124%
[30]
  viability, T/C: 124%
[31]
  viability, T/C: 107%
[32]
  viability, T/C: 96.2%
[33]
  viability, T/C: 93.1%
[34]
  viability, T/C: 103%
[35]
  viability, T/C: 102%
[36]
  viability, T/C: 94.1%

## O=C(c1cc(Cc2n[nH]c(=O)c3ccccc23)ccc1F)N1CCN(C(=O)C2CC2)CC1 + COC1C(OC(N)=O)C(O)C(Oc2ccc3c(O)c(NC(=O)c4ccc(O)c(CC=C(C)C)c4)c(=O)oc3c2C)OC1(C)C
Second compound 0.0316 µM
  IC50: > 10 µM
Second compound 0.1 µM
  IC50: > 10 µM
Second compound 0.316 µM
  IC50: > 10 µM
Second compound 1 µM
  IC50: > 10 µM
Second compound 3.16 µM
  IC50: > 10 µM
Second compound 10 µM
  IC50: > 10 µM
[1]
  viability, T/C: 129%
[2]
  viability, T/C: 114%
[3]
  viability, T/C: 114%
[4]
  viability, T/C: 122%
[5]
  viability, T/C: 116%
[6]
  viability, T/C: 101%
[7]
  viability, T/C: 107%
[8]
  viability, T/C: 113%
[9]
  viability, T/C: 117%
[10]
  viability, T/C: 129%
[11]
  viability, T/C: 131%
[12]
  viability, T/C: 93.6%
[13]
  viability, T/C: 116%
[14]
  viability, T/C: 110%
[15]
  viability, T/C: 119%
[16]
  viability, T/C: 135%
[17]
  viability, T/C: 106%
[18]
  viability, T/C: 99.5%
[19]
  viability, T/C: 128%
[20]
  viability, T/C: 122%
[21]
  viability, T/C: 121%
[22]
  viability, T/C: 127%
[23]
  viability, T/C: 134%
[24]
  viability, T/C: 98.2%
[25]
  viability, T/C: 144%
[26]
  viability, T/C: 114%
[27]
  viability, T/C: 109%
[28]
  viability, T/C: 121%
[29]
  viability, T/C: 117%
[30]
  viability, T/C: 98.9%
[31]
  viability, T/C: 128%
[32]
  viability, T/C: 119%
[33]
  viability, T/C: 120%
[34]
  viability, T/C: 128%
[35]
  viability, T/C: 108%
[36]
  viability, T/C: 95.2%

## CC1COCCN1c1cc(-c2ccnn2C)c2ccnc(-c3ccn[nH]3)c2n1 (stereo unspecified) + COC1C(OC(N)=O)C(O)C(Oc2ccc3c(O)c(NC(=O)c4ccc(O)c(CC=C(C)C)c4)c(=O)oc3c2C)OC1(C)C
Second compound 0.0316 µM
  IC50: 0.216 µM
Second compound 0.1 µM
  IC50: 0.232 µM
Second compound 0.316 µM
  IC50: 0.236 µM
Second compound 1 µM
  IC50: 0.242 µM
Second compound 3.16 µM
  IC50: 0.236 µM
Second compound 10 µM
  IC50: 0.295 µM
[1]
  viability, T/C: 104%
[2]
  viability, T/C: 71.6%
[3]
  viability, T/C: 39%
[4]
  viability, T/C: 28.6%
[5]
  viability, T/C: 36.5%
[6]
  viability, T/C: 19.8%
[7]
  viability, T/C: 106%
[8]
  viability, T/C: 69.5%
[9]
  viability, T/C: 43%
[10]
  viability, T/C: 27%
[11]
  viability, T/C: 36.9%
[12]
  viability, T/C: 18.8%
[13]
  viability, T/C: 88.8%
[14]
  viability, T/C: 63.6%
[15]
  viability, T/C: 46.7%
[16]
  viability, T/C: 28.9%
[17]
  viability, T/C: 31.3%
[18]
  viability, T/C: 18.9%
[19]
  viability, T/C: 92.4%
[20]
  viability, T/C: 72.2%
[21]
  viability, T/C: 43.2%
[22]
  viability, T/C: 26.9%
[23]
  viability, T/C: 38.4%
[24]
  viability, T/C: 16.6%
[25]
  viability, T/C: 94.6%
[26]
  viability, T/C: 75%
[27]
  viability, T/C: 42%
[28]
  viability, T/C: 26.5%
[29]
  viability, T/C: 35.9%
[30]
  viability, T/C: 22.7%
[31]
  viability, T/C: 102%
[32]
  viability, T/C: 82.1%
[33]
  viability, T/C: 47.9%
[34]
  viability, T/C: 30.6%
[35]
  viability, T/C: 41.7%
[36]
  viability, T/C: 20%
